# Data taken from US10780094B2, “Use of carbonic anhydrase inhibitors for treatment of neurological and psychiatric disorders” (New York University, priority 2016, dated 2020).
# How the values were obtained:
# C57BL/6 mice = assay: Intra-hippocampal Aβ40-Q22 injection, immunohistochemistry; format: in vivo, mouse
# Method: Six months old C57BL/6 mice were anesthetized with a mixture of ketamine and xylazine (120 and 10 mg/Kg respectively) i.p. and fixed to a stereotaxic frame (David Kopf Instruments, Tujunga, CaliforniaKopf). The body temperature was maintained stable with the use of a heating pad (Harvard Apparatus, Holliston, Mass.) for the total time of the surgery. A volume of 1 μl of a 10 μM fresh solution of Aβ40-Q22—chosen for its propensity to form toxic oligomers, and not fibrils, in the first few hours after solubilization—(Fossati et al., 2010) in PBS, or the vehicle for control mice, was injected in the hippocampus (Coordinates: AP=−2.7, L=−3.0 and H=−4.0, according to the Atlas of Paxinos and Franklin) at a flow rate of 0.1 μl/min. The needle (Hamilton 701 RN 10 μl syringe, RN needle 30/2″/3S) was left in place for two minutes and then slowly withdrawn. In the cases in which MTZ treatment was administered, mice were injected intraperitoneally with a solution of MTZ (20 mg/kg) 1 h before the Aβ40-Q22 intrahippocampal injection. At the selected time after injections, the animals were sacrificed by trans-cardiac perfusion (medium flow pump, Fisher Scientific 13-876-2, 10 ml/min flow rate) with PBS for 2 minutes followed by 4% paraphormaldehyde for 5 minutes. Brains were then removed from the skull and postfixed in 4% paraphormaldehyde for 2 h at 4° C. […] Brains were then washed in PBS, assembled in a plastic mold with Tissue-Tek O.C.T. compound (Fisher Scientific), and frozen with a mixture of liquid nitrogen and isopenthanol. Serial cryostat sections of 8 μm thickness were collected on positively charged microscope slides (Fisher Scientific) and stored at −80° C. until further immunohistochemical analysis.
# For immunohistochemical staining, slices were warmed to RT for 5′ prior to use, rinsed in PBS and blocked with Mouse on Mouse (MOM) blocking reagent (2 drops in 2.5 ml of PBS, Vector Laboratories, Burlingame, Calif.) for 20 minutes. Incubation with the rabbit monoclonal antibody against active caspase-3 (Cell Signaling Technology) was performed overnight at 4° C. in PBS containing 0.1% triton X-100 and 5 mg/ml BSA. The day after, the sections were washed three times with PBS and incubated in Alexa Fluor 488- or 633-conjugated anti-rabbit IgG (Life Technologies; 1:200 in PBST with 5 mg/ml BSA; 1 h at RT), followed by primary anti-Aβ 6E10 (1:200 in PBS+MOM for 2 hours at RT), and by secondary Alexa Fluor 568 anti-mouse IgG. Finally, the slices were washed and the DNA counterstained with TO-PRO (Life Technologies) 1:1000 for 10 min, or with NeuN green neuronal staining (1:100 in PBS for 1 hour, Millipore, Temecula, Calif.). For staining of active microglial cells, tissue sections were incubated with anti IBA1 goat antibody (Abcam, Cambridge, Mass.) 1:200 in PBS containing 0.1% Triton and 5 mg/ml BSA for 1 hour, followed by Alexa Fluor 488 anti-goat IgG (1 hour). After washing, slides were mounted with an aqueous mounting medium (Vector Laboratories). Images were acquired in a Zeiss LSM 510 confocal microscope using 40× or 100× oil lens and processed using Image J and Adobe Photoshop. Images were acquired maintaining constant exposure for all samples across single experiments. For quantifications, stained brain slices corresponding to the injection site area of 3 or more animals were quantified with Image J. The total area of NeuN, caspase 3, Aβ and IBA1 positive cells was quantified and compared between different treatments.
# SH-SY5Y cells = assay: Cellular ROS (CellROX, DCFDA); format: cell-based, human; settings: Aβ42 in the presence or absence of MTZ; 24 hours
# Method: For the last 30 minutes, the cells were incubated in the experimental medium at 37° C. with 5 μM CellROX Deep Red (Life Technologies) and 1 μg/ml Hoechst Stain (Immunochemistry Technologies, Bloomington, Minn.), as described by the manufacturer, followed by washes. Fluorescence was measured using a FlexStation 3 Multi-Mode Microplate Reader (Molecular Devices, Sunnyvale, Calif.).
# 10.000 cells of either SH-SY5Y or D3 cells were plated on 96-wells plates. The day after, cells were treated with the peptides and/or the drugs for the established experimental times. CellROX reagent was then added, directly, to the growing media, at a final concentration of 5 μM. 10 μg/mL of Hoescht 333258 was also added to the medium containing the CellROX reagent, in order to dye cell nuclei. Cells were incubated with both CellROX and Hoescht 333258, at 37° C., for 30 min., just before the ending time-point of the treatment. After 30 min., the medium was removed and cells were washed once in PBS 1× at room temperature. […]
# Cells were plated on 96-wells microplate fluorescence microtiter (ThermoFisher, Waltham, Mass., US), and treated with peptides and/or drugs on phenol red free medium, with no serum in the case of the SH-SY5Y cells and 1% serum on the D3. […] Fluorescence was measured using a FlexStation (Molecular devices, Sunnyvalem Calif., US).
# [1] = MTZ IP one hour before peptide injection
compound,measurement,setting,value
"CC(=O)/N=c1/sc(S(N)(=O)=O)nn1C [MTZ, methazolamide]",activation of caspase-3 induced by Aβ in CA1 neurons,"C57BL/6 mice; 20 mg/Kg MTZ IP 1 hour prior to Aβ40-Q22 injection, sacrificed 4 hours after",prevented
same,Aβ staining in the injected hemisphere,"C57BL/6 mice; Aβ in the presence or absence of MTZ, FIG. 9A",similarly increased
same,active-caspase 3 staining in IBA1- and Aβ-positive microglia,C57BL/6 mice; MTZ IP before Aβ injection,notably lower
same,caspase activation in the vicinity of the injection site,C57BL/6 mice; [1],significantly reduced
same,loss of NeuN immunoreactivity in the vicinity of the injection site,C57BL/6 mice; [1],significantly reduced
same,brain entry after systemic administration,C57BL/6 mice; inferred from efficacy after IP dosing,can enter the mouse brain
same,levels of cellular ROS (CellROX),SH-SY5Y cells,did not significantly change
